The values below come from US10449157B2, “Process for producing microcapsules comprising an active component encapsulated, protected and stabilised within a protein shell” (Anabio Technologies Limited, priority 2013, dated 2019).

For series [1] the following is noted: product literature; cited from earlier work.
Series [2] in a line: Electrophoretic mobility (zeta potential). Format: physicochemical.
The nature of series [3]: Stability trials of free and encapsulated Creatine in water (HPLC).

In the case of `CN(CC(=O)O)C(=N)N.O` [CREAPURE, Creatine Monohydrate], the “long term stability in water” value in series [1] is “no long term stability”.
`CN(CC(=O)O)C(=N)N.O` [commercial Creatine monohydrate, Creatine monohydrate]: in series [2], the zeta potential is −2.4 mV. Besides, in series [3] (15 min incubation in water at room temperature), the “Creatine concentration reduced by” value is listed as 66%. Further, the “first-order degradation rate constant” value in series [3] (in water at 25° C.) amounted to 0.0263 per day.
